The target in one assay is Coagulation factor X (Homo sapiens, UniProt P00742). Description: Inhibitory constant against Coagulation factor Xa (factor Xa). Details: species or system Bos taurus.
For the next assay, the target named is T1, Serine protease 1 (Bos taurus, UniProt P00760).
T1 sequence (P00760 whole entry): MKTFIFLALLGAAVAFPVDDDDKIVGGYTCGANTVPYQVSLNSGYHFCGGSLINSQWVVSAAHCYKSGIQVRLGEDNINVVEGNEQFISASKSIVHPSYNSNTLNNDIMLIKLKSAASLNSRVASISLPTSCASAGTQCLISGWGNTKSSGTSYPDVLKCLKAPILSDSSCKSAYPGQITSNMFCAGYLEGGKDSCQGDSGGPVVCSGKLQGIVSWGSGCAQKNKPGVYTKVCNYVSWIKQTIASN
Nature of the assay: Inhibitory constant against trypsin.

Each structure is given as a SMILES string.

Coagulation factor X, sequence (P00742 41-179 limits assumed): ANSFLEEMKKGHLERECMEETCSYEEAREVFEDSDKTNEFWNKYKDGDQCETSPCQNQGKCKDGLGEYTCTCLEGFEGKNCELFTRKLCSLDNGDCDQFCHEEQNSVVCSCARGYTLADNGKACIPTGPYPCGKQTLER
Coagulation factor X, sequence (P00742 235-488 limits assumed): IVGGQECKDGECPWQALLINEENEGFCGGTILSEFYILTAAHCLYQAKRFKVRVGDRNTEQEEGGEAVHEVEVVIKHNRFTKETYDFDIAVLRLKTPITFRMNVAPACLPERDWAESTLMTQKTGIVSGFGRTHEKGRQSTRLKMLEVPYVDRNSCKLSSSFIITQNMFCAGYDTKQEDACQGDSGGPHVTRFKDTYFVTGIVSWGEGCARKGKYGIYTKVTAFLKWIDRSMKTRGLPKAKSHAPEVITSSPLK

Regarding `Cc1c(F)c(Oc2cccc(C(=N)N)c2)cc(Oc2cccc(C(=N)N)c2)c1F`, the Ki worked out at 12 nM on Coagulation factor X and 740 nM at Serine protease 1.

On to `Cc1c(F)c(Oc2cccc(CN)c2)cc(Oc2cccc(C(=N)N)c2)c1F`, for which the figures for the Ki at Coagulation factor X and at Serine protease 1 were 1400 nM and 2900 nM, respectively.

For orientation: Ki means a dissociation constant, usually derived from enzyme kinetics or from competition with a known ligand. Higher therefore signals weaker binding.

These data come from ChEMBL document CHEMBL1132402, “Conformations of trypsin-bound amidine inhibitors of blood coagulant factor Xa by double REDOR NMR and MD simulations” (J Med Chem, 1999).
